The supplement of paper PMC11368000

Assays:
Details in all cases: exposure time: 90 min
[1] = system: 30145 (donor line of iPSC-derived cardiomyocytes); assay: POD (EC05) for increase in beat frequency (positive chronotrope) vs vehicle; higher = less potent (higher point of departure)
Outline: (§1)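 Human iPSC-derived cardiomyocytes from 16 donors, dye-loaded for Ca2+, were treated for 90 min at 37 °C at final concentrations of 0.1, 1, 10 and 100 µM in 0.5% DMSO. Ca2+ flux was measured on a FLIPR Tetra before and after treatment. Hierarchical Bayesian Hill fitting of vehicle-normalised beat frequency, decay-to-rise ratio or peak frequency yielded donor-specific points of departure. Thresholds: 5% change, or 95% loss for peak frequency.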

[2] = system: 30145; assay: POD (EC95) for loss of peak frequency (asystole) vs vehicle; higher = less potent (higher point of departure)
Experimental: (§2)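 Human iPSC-derived cardiomyocytes from 16 donors were exposed for 90 min at 37 °C to each PFAS at 0.1, 1, 10 and 100 µM in 0.5% DMSO, 384-well plates. Kinetic Ca2+ flux (FLIPR) and Hoechst nuclei counts were normalised to vehicle wells and fitted with a hierarchical Bayesian Hill model to give donor-specific PODs: EC05 for beat-rate increase or decrease and for decay-to-rise ratio increase (QT proxy), EC95 for peak-frequency loss (asystole), EC10 for total cell number loss. 0.03 µM is the lower bound.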

[3] = system: 11235 (donor line of iPSC-derived cardiomyocytes); assay: as above
Experimental: as §2

[4] = system: 1083 (donor line of iPSC-derived cardiomyocytes); assay: as above
Experimental: as §2

[5] = system: 1531 (donor line of iPSC-derived cardiomyocytes); assay: as above
Experimental: as §2

[6] = system: 1392 (donor line of iPSC-derived cardiomyocytes); assay: as above
Experimental: as §2

[7] = system: 1565 (donor line of iPSC-derived cardiomyocytes); assay: as above
Experimental: as §2

[8] = system: 1118 (donor line of iPSC-derived cardiomyocytes); assay: as above
Experimental: as §2

[9] = system: 1518 (donor line of iPSC-derived cardiomyocytes); assay: as above
Experimental: as §2

[10] = system: 1535 (donor line of iPSC-derived cardiomyocytes); assay: as above
Experimental: as §2

[11] = system: 1368 (donor line of iPSC-derived cardiomyocytes); assay: as above
Experimental: as §2

[12] = system: 20084 (donor line of iPSC-derived cardiomyocytes); assay: as above
Experimental: as §2

[13] = system: 30171 (donor line of iPSC-derived cardiomyocytes); assay: as above
Experimental: as §2

[14] = system: 1434 (donor line of iPSC-derived cardiomyocytes); assay: as above
Experimental: as §2

[15] = system: 1309 (donor line of iPSC-derived cardiomyocytes); assay: as above
Experimental: as §2

[16] = system: 20032 (donor line of iPSC-derived cardiomyocytes); assay: as above
Experimental: as §2

[17] = system: 1516 (donor line of iPSC-derived cardiomyocytes); assay: as above
Experimental: as §2

[18] = system: 1518; assay: POD (EC05) for increase in Ca2+ transient decay-to-rise ratio (QT prolongation) vs vehicle; higher = less potent (higher point of departure)
Outline: as §1

[19] = system: 1516; assay: as above
Outline: as §1

[20] = system: 1531; assay: as above
Outline: as §1

Row | SMILES | POD vs vehicle [1] | POD vs vehicle [2] | POD vs vehicle [3] | POD vs vehicle [4] | POD vs vehicle [5] | POD vs vehicle [6] | POD vs vehicle [7] | POD vs vehicle [8] | POD vs vehicle [9] | POD vs vehicle [10] | POD vs vehicle [11] | POD vs vehicle [12] | POD vs vehicle [13] | POD vs vehicle [14] | POD vs vehicle [15] | POD vs vehicle [16] | POD vs vehicle [17] | POD vs vehicle [18] | POD vs vehicle [19] | POD vs vehicle [20]
1 | O=C(O)C(F)(F)C(F)(F)C(F)(F)OC(F)(C(F)(F)F)C(F)(F)F [Perfluoro-4-isopropoxybutanoic_acid] | > 100 µM | > 100 µM | > 100 µM | > 100 µM | > 100 µM | > 100 µM | > 100 µM | > 100 µM | > 100 µM | > 100 µM | > 100 µM | > 100 µM | > 100 µM | > 100 µM | > 100 µM | > 100 µM | > 100 µM | > 100 µM | > 100 µM | 
2 | O=C(O)C(F)(F)OC(F)(F)C(F)(F)OC(F)(F)C(F)(F)OC(F)(F)C(F)(F)C(F)(F)C(F)(F)F [Perfluoro-3,6,9-trioxatridecanoic_acid] | > 100 µM | > 100 µM | 92.2 µM | 79.4 µM | 11.4 µM | > 100 µM | > 100 µM | 63.7 µM | > 100 µM | > 100 µM | > 100 µM | > 100 µM | 73 µM | 89.3 µM | > 100 µM | > 100 µM | 84.8 µM | > 100 µM |  | 
3 | O=C(O)C(F)(F)C(F)(F)C(F)(F)C(F)(F)C(F)(F)C(F)(F)F [Perfluoroheptanoic_acid] | > 100 µM | > 100 µM | > 100 µM | > 100 µM | > 100 µM | > 100 µM | > 100 µM | > 100 µM | > 100 µM | > 100 µM | > 100 µM | > 100 µM | > 100 µM | > 100 µM | > 100 µM | > 100 µM | > 100 µM |  |  | 
4 | OCCC(F)(F)C(F)(F)C(F)(F)C(F)(F)F [4:2 Fluorotelomer alcohol] |  | > 100 µM | > 100 µM | > 100 µM | > 100 µM | > 100 µM | > 100 µM | 89.1 µM | > 100 µM | > 100 µM | > 100 µM | > 100 µM | > 100 µM | > 100 µM | > 100 µM | > 100 µM | > 100 µM |  |  | 
5 | O=C(O)C(F)(F)C(F)(F)C(F)F [2,2,3,3,4,4-Hexafluorobutanoic_acid] |  | > 100 µM | > 100 µM | > 100 µM | > 100 µM | > 100 µM | > 100 µM | > 100 µM | > 100 µM | > 100 µM | > 100 µM | > 100 µM | > 100 µM | > 100 µM | > 100 µM | > 100 µM | > 100 µM |  |  | > 100 µM
6 | O=C(O)C(F)(F)OC(F)(F)C(F)(F)OC(F)(F)F [Perfluoro-3,6-dioxaheptanoic_acid] |  | > 100 µM | > 100 µM | > 100 µM | > 100 µM | > 100 µM | > 100 µM | > 100 µM | > 100 µM | > 100 µM | > 100 µM | > 100 µM | > 100 µM | > 100 µM | > 100 µM | > 100 µM | > 100 µM |  |  | > 100 µM
7 | O=C(O)C(F)(F)C(F)(F)C(F)(F)C(F)(F)C(F)(F)C(F)(F)C(F)(F)C(F)(F)F [Perfluorononanoic_acid] |  | > 100 µM | 31.5 µM | > 100 µM | > 100 µM | > 100 µM | > 100 µM | 99.4 µM | > 100 µM | > 100 µM | > 100 µM | > 100 µM | 82.8 µM | > 100 µM | > 100 µM | > 100 µM | > 100 µM |  |  | > 100 µM
8 | OCC(F)(F)C(F)(F)C(F)(F)C(F)F [1H,1H,5H-Perfluoropentanol] | > 100 µM | > 100 µM | > 100 µM | > 100 µM | > 100 µM | > 100 µM | > 100 µM | 86.3 µM | > 100 µM | > 100 µM | > 100 µM | > 100 µM | > 100 µM | > 100 µM | > 100 µM | > 100 µM | > 100 µM | 2.03 µM | 4.56 µM | 
9 | O=C(CC(=O)C(F)(F)C(F)(F)F)C(F)(F)F [3H,3H-Perfluoro-2,4-hexanedione] | > 100 µM | > 100 µM | 87.4 µM | > 100 µM | > 100 µM | > 100 µM | > 100 µM | 80.5 µM | > 100 µM | > 100 µM | > 100 µM | > 100 µM | 79.9 µM | 78.3 µM | > 100 µM | > 100 µM | > 100 µM | > 100 µM | > 100 µM | 
10 | O=S(=O)([O-])C(F)(F)C(F)(F)C(F)(F)C(F)(F)F.[K+] [Potassium_perfluorobutanesulfonate] | > 100 µM | > 100 µM | > 100 µM | > 100 µM | > 100 µM | > 100 µM | > 100 µM | > 100 µM | > 100 µM | > 100 µM | > 100 µM | > 100 µM | > 100 µM | > 100 µM | > 100 µM | > 100 µM | > 100 µM | > 100 µM | > 100 µM | 
11 | NC(=O)C(F)(F)C(F)(F)C(F)(F)C(F)(F)C(F)(F)C(F)(F)C(F)(F)F [Perfluorooctanamide] | > 100 µM | > 100 µM | > 100 µM | > 100 µM | > 100 µM | > 100 µM | > 100 µM | > 100 µM | > 100 µM | > 100 µM | > 100 µM | > 100 µM | > 100 µM | > 100 µM | > 100 µM | > 100 µM | > 100 µM |  | > 100 µM | 
